The NIST ThermoML archive (doi:10.1016/j.jct.2017.06.002)

Assay: xn = mol fraction of the nth substance listed
Conditions: 100 kPa, Liquid; for viscosity: Concentric cylinders viscometry; for mass density: Vibrating tube method

COCOCOCOCOC [2,4,6,8,10-pentaoxaundecane] + COCOCOCOC
Conditions | mass density [kg/m3] | viscosity [mPa·s]
288.15 K, x2 = 0 | 1078.8 | 2.207
288.15 K, x2 = 0.12 | 1074.7 | 2.085
288.15 K, x2 = 0.24 | 1070.3 | 1.982
288.15 K, x2 = 0.35 | 1065.8 | 1.899
288.15 K, x2 = 0.45 | 1061.1 | 1.83
288.15 K, x2 = 0.55 | 1056.3 | 1.769
288.15 K, x2 = 0.65 | 1051.8 | 1.707
288.15 K, x2 = 0.74 | 1047.6 | 1.642
288.15 K, x2 = 0.83 | 1043.9 | 1.553
288.15 K, x2 = 0.86 | 1042.2 | –
288.15 K, x2 = 0.92 | 1039.9 | 1.442
288.15 K, x2 = 0.96 | 1039.1 | –
293.15 K, x2 = 0 | 1073.3 | 2.015
293.15 K, x2 = 0.12 | 1069.2 | 1.895
293.15 K, x2 = 0.24 | 1065.1 | 1.798
293.15 K, x2 = 0.35 | 1061 | 1.724
293.15 K, x2 = 0.45 | 1056.7 | 1.663
293.15 K, x2 = 0.55 | 1052.2 | 1.606
293.15 K, x2 = 0.65 | 1047.5 | 1.556
293.15 K, x2 = 0.74 | 1043.1 | 1.494
293.15 K, x2 = 0.83 | 1038.9 | 1.412
293.15 K, x2 = 0.86 | 1036.6 | –
293.15 K, x2 = 0.92 | 1034.6 | 1.311
293.15 K, x2 = 0.96 | 1032.4 | –
298.15 K, x2 = 0 | 1068.2 | 1.848
298.15 K, x2 = 0.12 | 1064.2 | 1.729
298.15 K, x2 = 0.24 | 1060 | 1.639
298.15 K, x2 = 0.35 | 1055.5 | 1.574
298.15 K, x2 = 0.45 | 1051.3 | 1.523
298.15 K, x2 = 0.55 | 1047.1 | 1.472
298.15 K, x2 = 0.65 | 1043.1 | 1.429
298.15 K, x2 = 0.74 | 1038.5 | 1.374
298.15 K, x2 = 0.83 | 1034.1 | 1.3
298.15 K, x2 = 0.86 | 1031.3 | –
298.15 K, x2 = 0.92 | 1029.3 | 1.21
298.15 K, x2 = 0.96 | 1026.3 | –
303.15 K, x2 = 0 | 1063.4 | 1.703
303.15 K, x2 = 0.12 | 1059.7 | 1.582
303.15 K, x2 = 0.24 | 1055.1 | 1.496
303.15 K, x2 = 0.35 | 1050.5 | 1.437
303.15 K, x2 = 0.45 | 1046.1 | 1.394
303.15 K, x2 = 0.55 | 1041.8 | 1.354
303.15 K, x2 = 0.65 | 1038 | 1.319
303.15 K, x2 = 0.74 | 1033.9 | 1.273
303.15 K, x2 = 0.83 | 1029.5 | 1.217
303.15 K, x2 = 0.86 | 1026.8 | –
303.15 K, x2 = 0.92 | 1024.2 | 1.139
303.15 K, x2 = 0.96 | 1020.7 | –
308.15 K, x2 = 0 | 1059.1 | 1.576
308.15 K, x2 = 0.12 | 1055.5 | 1.448
308.15 K, x2 = 0.24 | 1050.8 | 1.366
308.15 K, x2 = 0.35 | 1046.2 | 1.313
308.15 K, x2 = 0.45 | 1041.8 | 1.28
308.15 K, x2 = 0.55 | 1037.5 | 1.248
308.15 K, x2 = 0.65 | 1033.7 | 1.23
308.15 K, x2 = 0.74 | 1029.8 | 1.192
308.15 K, x2 = 0.83 | 1025.5 | 1.149
308.15 K, x2 = 0.86 | 1022.6 | –
308.15 K, x2 = 0.92 | 1019.8 | 1.087
308.15 K, x2 = 0.96 | 1015.6 | –
313.15 K, x2 = 0 | 1055.2 | 1.464
313.15 K, x2 = 0.12 | 1051.7 | 1.331
313.15 K, x2 = 0.24 | 1047.2 | 1.252
313.15 K, x2 = 0.35 | 1042.8 | 1.207
313.15 K, x2 = 0.45 | 1038.2 | 1.18
313.15 K, x2 = 0.55 | 1034.2 | 1.155
313.15 K, x2 = 0.65 | 1030.3 | 1.143
313.15 K, x2 = 0.74 | 1026.4 | 1.121
313.15 K, x2 = 0.83 | 1022.1 | 1.092
313.15 K, x2 = 0.86 | 1018.9 | –
313.15 K, x2 = 0.92 | 1016.2 | 1.044
313.15 K, x2 = 0.96 | 1011.6 | –
